The supplement of paper PMC6045584
± gives the standard deviation of the averaged measurements.

Tests used:
ABT-737 [1] = compound: T1, CN(C)CC[C@H](CSc1ccccc1)Nc1ccc(S(=O)(=O)NC(=O)c2ccc(N3CCN(Cc4ccccc4-c4ccc(Cl)cc4)CC3)cc2)cc1[N+](=O)[O-] [ABT-737]; experiment: surviving fraction relative to DMSO-only wells; higher = less growth inhibition; settings: exposure time: 5 days
Procedure, shortened: (§1)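 Surviving fraction is CellTiter-Glo luminescence divided by the median of wells given DMSO only. For this, log-phase tumour cell lines went into 384-well plates at 250–500 cells per well and, 24 hours later, into five days of continuous inhibitor exposure at 0.5, 1, 5, 10, 50, 100, 500 and 1000 nM. Lines were screened three times and retained only if replicate Pearson r >0.7 and median Z' >0.3.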

FLAVOPIRIDOL [2] = compound: T2, CN1CC[C@H](c2c(O)cc(O)c3c(=O)cc(-c4ccccc4Cl)oc23)[C@H](O)C1 [FLAVOPIRIDOL]; experiment: as above; settings: exposure time: 5 days
Procedure, shortened: as §1

2-METHOXYESTRADIOL [3] = compound: T3, COc1cc2c(cc1O)CC[C@@H]1[C@@H]2CC[C@]2(C)[C@@H](O)CC[C@@H]12 [2-METHOXYESTRADIOL]; experiment: as above; settings: exposure time: 5 days
Procedure, shortened: as §1

LAPATINIB [4] = compound: T4, CS(=O)(=O)CCNCc1ccc(-c2ccc3ncnc(Nc4ccc(OCc5cccc(F)c5)c(Cl)c4)c3c2)o1 [LAPATINIB]; experiment: as above; settings: exposure time: 5 days
Procedure, shortened: as §1

DECITABINE [5] = compound: T5, Nc1ncn([C@H]2C[C@H](O)[C@@H](CO)O2)c(=O)n1 [DECITABINE]; experiment: as above; settings: exposure time: 5 days
Procedure, shortened: as §1

FLUOROURACIL [6] = compound: T6, O=c1[nH]cc(F)c(=O)[nH]1 [FLUOROURACIL]; experiment: as above; settings: exposure time: 5 days
Procedure, shortened: as §1

RESVERATROL [7] = compound: T7, Oc1ccc(/C=C/c2cc(O)cc(O)c2)cc1 [RESVERATROL]; experiment: as above; settings: exposure time: 5 days
Procedure, shortened: as §1

ABT-737 [8] = compound: T1, ABT-737; experiment: area under dose-response curve of surviving fraction (unscaled, Aref=0) (surviving fraction x log10(nM)); higher = more resistant; settings: exposure time: 5 days; dose range 0.5-1000 nM
Procedure, shortened: (§2)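 Three screens per tumour cell line were run in 384-well plates at eight inhibitor concentrations from 0.5 to 1000 nM over five days. Surviving fractions, from CellTiter-Glo luminescence normalised to DMSO-only wells, were fitted with 3-parameter logistic curves in the drc R package. The reported area under the curve is the unscaled activity area. It spans log10 dose, and Aref is 0.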

FLAVOPIRIDOL [9] = compound: T2, FLAVOPIRIDOL; experiment: as above; settings: exposure time: 5 days; dose range 0.5-1000 nM
Procedure, shortened: as §2

2-METHOXYESTRADIOL [10] = compound: T3, 2-METHOXYESTRADIOL; experiment: as above; settings: exposure time: 5 days; dose range 0.5-1000 nM
Procedure, shortened: as §2

LAPATINIB [11] = compound: T4, LAPATINIB; experiment: as above; settings: exposure time: 5 days; dose range 0.5-1000 nM
Procedure, shortened: as §2

DECITABINE [12] = compound: T5, DECITABINE; experiment: as above; settings: exposure time: 5 days; dose range 0.5-1000 nM
Procedure, shortened: as §2

FLUOROURACIL [13] = compound: T6, FLUOROURACIL; experiment: as above; settings: exposure time: 5 days; dose range 0.5-1000 nM
Procedure, shortened: as §2

RESVERATROL [14] = compound: T7, RESVERATROL; experiment: as above; settings: exposure time: 5 days; dose range 0.5-1000 nM
Procedure, shortened: as §2

17-AAG = compound: C=CCNC1=C2C[C@@H](C)C[C@H](OC)[C@H](O)[C@@H](C)/C=C(\C)[C@H](OC(N)=O)[C@@H](OC)/C=C\C=C(/C)C(=O)NC(=CC1=O)C2=O [17-AAG]; experiment: as above; settings: exposure time: 5 days; dose range 0.5-1000 nM
Procedure, shortened: as §2

[15] = compound: CCN(CC)CCCCNc1ncc2cc(-c3cc(OC)cc(OC)c3)c(NC(=O)NC(C)(C)C)nc2n1; experiment: as above; settings: exposure time: 5 days; dose range 0.5-1000 nM
Procedure, shortened: as §2

SALINOMYCIN = compound: CC[C@@H](C(=O)[C@@H](C)[C@@H](O)[C@H](C)[C@@H]1O[C@@H]([C@@H](CC)C(=O)O)CC[C@@H]1C)[C@H]1O[C@]2(C=C[C@@H](O)[C@]3(CC[C@@](C)([C@H]4CC[C@](O)(CC)[C@H](C)O4)O3)O2)[C@H](C)C[C@@H]1C [SALINOMYCIN]; experiment: as above; settings: exposure time: 5 days; dose range 0.5-1000 nM
Procedure, shortened: as §2

NUTLIN3 = compound: COc1ccc(C2=N[C@@H](c3ccc(Cl)cc3)[C@@H](c3ccc(Cl)cc3)N2C(=O)N2CCNC(=O)C2)c(OC(C)C)c1 [NUTLIN3]; experiment: as above; settings: exposure time: 5 days; dose range 0.5-1000 nM
Procedure, shortened: as §2

DOXORUBICIN = compound: COc1cccc2c1C(=O)c1c(O)c3c(c(O)c1C2=O)C[C@@](O)(C(=O)CO)C[C@@H]3O[C@H]1C[C@H](N)[C@H](O)[C@H](C)O1 [DOXORUBICIN]; experiment: as above; settings: exposure time: 5 days; dose range 0.5-1000 nM
Procedure, shortened: as §2

VISMODEGIB = compound: CS(=O)(=O)c1ccc(C(=O)Nc2ccc(Cl)c(-c3ccccn3)c2)c(Cl)c1 [VISMODEGIB]; experiment: as above; settings: exposure time: 5 days; dose range 0.5-1000 nM
Procedure, shortened: as §2

Question: CCK81 LARGE INTESTINE was tested. Which surviving fraction (ABT-737 [1]; 0.5 nM) did it give?
Answer: 0.869 ± 0.15

Question: And the surviving fraction (ABT-737 [1]; 1 nM)?
Answer: 0.887 ± 0.025

Question: And the surviving fraction (ABT-737 [1]; 5 nM)?
Answer: 0.83 ± 0.11

Question: And the surviving fraction (ABT-737 [1]; 10 nM)?
Answer: 0.847 ± 0.077

Question: What about the surviving fraction (ABT-737 [1]; 50 nM) of the same test system?
Answer: 0.859 ± 0.11

Question: And the surviving fraction (ABT-737 [1]; 100 nM)?
Answer: 0.724 ± 0.13

Question: And the surviving fraction (ABT-737 [1]; 500 nM)?
Answer: 0.678 ± 0.071

Question: And the surviving fraction (ABT-737 [1]; 1000 nM)?
Answer: 0.695 ± 0.053

Question: And the surviving fraction (FLAVOPIRIDOL [2]; 0.5 nM)?
Answer: 0.883 ± 0.13

Question: What about the surviving fraction (FLAVOPIRIDOL [2]; 1 nM) of the same test system?
Answer: 0.817 ± 0.082

Question: What about the surviving fraction (FLAVOPIRIDOL [2]; 5 nM) of the same test system?
Answer: 0.785 ± 0.15

Question: And the surviving fraction (FLAVOPIRIDOL [2]; 10 nM)?
Answer: 0.813 ± 0.1

Question: What about the surviving fraction (FLAVOPIRIDOL [2]; 50 nM) of the same test system?
Answer: 0.416 ± 0.062

Question: And the surviving fraction (FLAVOPIRIDOL [2]; 100 nM)?
Answer: 0.0273 ± 0.011

Question: What about the surviving fraction (FLAVOPIRIDOL [2]; 500 nM) of the same test system?
Answer: 0.0177 ± 0.0015

Question: And the surviving fraction (FLAVOPIRIDOL [2]; 1000 nM)?
Answer: 0.0203 ± 0.00058

Question: What about the surviving fraction (2-METHOXYESTRADIOL [3]; 0.5 nM) of the same test system?
Answer: 0.764 ± 0.17

Question: What about the surviving fraction (2-METHOXYESTRADIOL [3]; 1 nM) of the same test system?
Answer: 0.801 ± 0.13

Question: And the surviving fraction (2-METHOXYESTRADIOL [3]; 5 nM)?
Answer: 0.773 ± 0.027

Question: And the surviving fraction (2-METHOXYESTRADIOL [3]; 10 nM)?
Answer: 0.752 ± 0.059

Question: And the surviving fraction (2-METHOXYESTRADIOL [3]; 50 nM)?
Answer: 0.776 ± 0.076

Question: And the surviving fraction (2-METHOXYESTRADIOL [3]; 100 nM)?
Answer: 0.779 ± 0.03

Question: What about the surviving fraction (2-METHOXYESTRADIOL [3]; 500 nM) of the same test system?
Answer: 0.574 ± 0.076

Question: And the surviving fraction (2-METHOXYESTRADIOL [3]; 1000 nM)?
Answer: 0.249 ± 0.02

Question: And the surviving fraction (LAPATINIB [4]; 0.5 nM)?
Answer: 0.728 ± 0.083

Question: What about the surviving fraction (LAPATINIB [4]; 1 nM) of the same test system?
Answer: 0.751 ± 0.054

Question: What about the surviving fraction (LAPATINIB [4]; 5 nM) of the same test system?
Answer: 0.826 ± 0.17

Question: What about the surviving fraction (LAPATINIB [4]; 10 nM) of the same test system?
Answer: 0.751 ± 0.074

Question: What about the surviving fraction (LAPATINIB [4]; 50 nM) of the same test system?
Answer: 0.65 ± 0.16

Question: And the surviving fraction (LAPATINIB [4]; 100 nM)?
Answer: 0.536 ± 0.024

Question: And the surviving fraction (LAPATINIB [4]; 500 nM)?
Answer: 0.082 ± 0.017

Question: And the surviving fraction (LAPATINIB [4]; 1000 nM)?
Answer: 0.0653 ± 0.0081

Question: What about the surviving fraction (DECITABINE [5]; 0.5 nM) of the same test system?
Answer: 0.759 ± 0.099

Question: What about the surviving fraction (DECITABINE [5]; 1 nM) of the same test system?
Answer: 0.761 ± 0.034

Question: What about the surviving fraction (DECITABINE [5]; 5 nM) of the same test system?
Answer: 0.578 ± 0.11

Question: And the surviving fraction (DECITABINE [5]; 10 nM)?
Answer: 0.707 ± 0.12

Question: And the surviving fraction (DECITABINE [5]; 50 nM)?
Answer: 0.367 ± 0.058

Question: What about the surviving fraction (DECITABINE [5]; 100 nM) of the same test system?
Answer: 0.348 ± 0.035

Question: What about the surviving fraction (DECITABINE [5]; 500 nM) of the same test system?
Answer: 0.308 ± 0.035

Question: And the surviving fraction (DECITABINE [5]; 1000 nM)?
Answer: 0.286 ± 0.094

Question: And the surviving fraction (FLUOROURACIL [6]; 0.5 nM)?
Answer: 0.849 ± 0.12

Question: What about the surviving fraction (FLUOROURACIL [6]; 1 nM) of the same test system?
Answer: 0.804 ± 0.081

Question: What about the surviving fraction (FLUOROURACIL [6]; 5 nM) of the same test system?
Answer: 0.764 ± 0.086

Question: And the surviving fraction (FLUOROURACIL [6]; 10 nM)?
Answer: 0.835 ± 0.13

Question: And the surviving fraction (FLUOROURACIL [6]; 50 nM)?
Answer: 0.851 ± 0.079

Question: What about the surviving fraction (FLUOROURACIL [6]; 100 nM) of the same test system?
Answer: 0.751 ± 0.075

Question: And the surviving fraction (FLUOROURACIL [6]; 500 nM)?
Answer: 0.775 ± 0.042

Question: What about the surviving fraction (FLUOROURACIL [6]; 1000 nM) of the same test system?
Answer: 0.609 ± 0.084

Question: What about the surviving fraction (RESVERATROL [7]; 0.5 nM) of the same test system?
Answer: 0.73 ± 0.017

Question: And the surviving fraction (RESVERATROL [7]; 1 nM)?
Answer: 0.79 ± 0.13

Question: What about the surviving fraction (RESVERATROL [7]; 5 nM) of the same test system?
Answer: 0.71 ± 0.065

Question: What about the surviving fraction (RESVERATROL [7]; 10 nM) of the same test system?
Answer: 0.724 ± 0.037

Question: What about the surviving fraction (RESVERATROL [7]; 50 nM) of the same test system?
Answer: 0.671 ± 0.058

Question: What about the surviving fraction (RESVERATROL [7]; 100 nM) of the same test system?
Answer: 0.793 ± 0.11

Question: And the surviving fraction (RESVERATROL [7]; 500 nM)?
Answer: 0.844 ± 0.085

Question: What about the surviving fraction (RESVERATROL [7]; 1000 nM) of the same test system?
Answer: 0.728 ± 0.039

Question: And the “area under dose-response curve” value (ABT-737 [8])?
Answer: 2.64

Question: And the “area under dose-response curve” value (FLAVOPIRIDOL [9])?
Answer: 1.69

Question: And the “area under dose-response curve” value (2-METHOXYESTRADIOL [10])?
Answer: 2.32

Question: And the “area under dose-response curve” value (LAPATINIB [11])?
Answer: 1.95

Question: And the “area under dose-response curve” value (DECITABINE [12])?
Answer: 1.69

Question: And the “area under dose-response curve” value (FLUOROURACIL [13])?
Answer: 2.58

Question: What about the “area under dose-response curve” value (RESVERATROL [14]) of the same test system?
Answer: 2.47

Question: What does the source list for HS57T LUNG?
Answer: area under dose-response curve (17-AAG): 1.35; area under dose-response curve [15]: 2.66; area under dose-response curve (SALINOMYCIN): 2.57; area under dose-response curve (ABT-737 [8]): 3.45; area under dose-response curve (FLAVOPIRIDOL [9]): 2.07; area under dose-response curve (2-METHOXYESTRADIOL [10]): 2.78; area under dose-response curve (NUTLIN3): 3.4; area under dose-response curve (DOXORUBICIN): 1.22; area under dose-response curve (LAPATINIB [11]): 3.42; area under dose-response curve (VISMODEGIB): 3.29; area under dose-response curve (DECITABINE [12]): 3.05; area under dose-response curve (FLUOROURACIL [13]): 3.24; area under dose-response curve (RESVERATROL [14]): 3.35
